Experimental data as given in US20090099167A1, “Organic compounds” (Novartis Institutes for Biomedical Research, priority 2004, published 2009).
pIC50: −log10 of the molar value.

How the values were obtained:
[1] = target: T1, human insulin receptor (Ins-R) (Homo sapiens, UniProt P06213); assay: Ins-R tyrosine kinase assay, GST-Ins-R; assay type: biochemical; settings: Table 4; read-out: Ins-R, activity (IC50 for kinase inhibition)
T1 construct: encoding the amino acid region 919-1343 of the intra-cytoplasmic kinase domain of the human insulin receptor; made in house; host or cells: baculovirus (Bac-to-Bac)
Source text: The inhibition of IGF-1R and Ins-R can be determined as follows: The baculovirus donor vector pfbgx3IGFIRcd is used to generate a recombinant baculovirus that expresses the amino acid region 950-1337 of the mature peptide cytoplasmic domain of the human IGF-IR. To generate the cDNA fragment encoding the amino acid region 919-1343 of the intra-cytoplasmic kinase domain of the human insulin receptor, pC5hInsR is used. The fragments of the human IGF-IR and Ins-R are cloned, expressed and small-scale purified as a factor Xa-cleavable glutathione-S-transferase (GST)-fusion protein using the Bac-to-Bac™ system (GIBCO BRL) of recombinant baculovirus generation. Virus containing media is collected from the transfected cell culture and used for infection to increase its titer. Virus containing media obtained after two rounds of infection is used for large-scale protein expression. Cell extracts are prepared and loaded onto a glutathione-Sepharose (Pharmacia) column. After washing, the GST-tagged proteins are then eluted with a glutathione-containing buffer. Purified protein is stored at −70° C. in elution buffer. Tyrosine protein kinase assays with purified GST-IGF-1R and GST-ins-R are carried in a final volume of 30 μl containing 20 mM Tris-HCl, pH 7.6, 10 mM MgCl2, 0.01 mM Na3VO4, 1% DMSO, 1 mM DTT, 3 μg/ml poly(Glu,Tyr) 4:1 and 10 μM ATP (γ-[^33P]-ATP 0.1 μCi). The assay is performed in 96-well plates at ambient temperature for 20 min and terminated by addition of 25 μl 0.05 M EDTA pH 7.0. An aliquot of 40 μl is spotted with a multichannel dispenser on Whatman P81 membranes mounted in a Millipore Microtiter filter manifold connected to a low vacuum source. After elimination of liquid, the membrane is transferred to a sequence of 4 washing baths containing 0.5% H3PO4 and one with EtOH (shaking incubation for 10 min each), dried, mounted onto a Hewlett Packard TopCount manifold added 10 μl Microscint® and counted. Compounds of formula (I) show up to 90% inhibition of Ins-R at 10,000 nM, preferably between 60-90% inhibition. The inhibition of Tek can be determined as follows: The procedure of the expression, purification and assay these kinases has been described. Fabbro et al., Pharmacol. Ther. 82(2-3) 293-301 (1999). In brief, the glutathione S-transferase (GST) gene from the pAcG1 vector (Pharmingen) is excised with EcoRV and EcoRI and inserted into the cloning site of the Fast-Bac baculoviral vector (GIBCO) creating a 5530 bp vector with N-terminal cloning sites derived from the pAcG1 fusion vector (FBG0). The C-terminal cloning site may be any cloning site (from the Fast-Bac vector) downstream of the N-terminal cloning site used. N-terminally GST-fused (pAcG1, Pharmingen) KDR, Flt-1, Flk-1, Tek and PDGFR-β kinase domains are obtained from ProQinase, Freiburg, Germany. Tek is recloned into the FBG1 vector by EcoRI excision and ligation into EcoRI digested FBG1 (FBG1-Tek). The coding sequences for the whole cytoplasmic domain of c-Kit (aa 544-976) and c-Fms (aa 538-972) are amplified by PCR from human uterus and from human bone marrow cDNA libraries (Clontech), respectively. The amplified DNA fragments are fused to GST by cloning them into FBG1 as BamHI-EcoRI insertions, to yield FBG1-c-Kit and FBG1-c-Fms. Tek is recloned into the FBG0 transfer vector by EcoRI excision and ligation into EcoRI digested FBG0 (FBG-Tie2/Tek). FGFR-1 and c-met kinase domains are obtained by PCR from human A431 cells. N-terminal primers contain an overhanging EcoRI site, while C-terminal primers contain a XhoI site to aid cloning into the transfer vectors. After digestion of both the PCR fragments and FBG0 the cleavage products are gel-purified and ligated together to form the kinase constructs (FBG-Met, FBG-FGFR-1).

[2] = target: Cdk1/cycB (UniProt P06493); assay: Cdk1/cycB kinase assay, histone H1 substrate; assay type: biochemical, starfish; settings: Table 4; read-out: Cdk1, activity (IC50 for kinase inhibition)
Method: The inhibition of Cdk1 can be determined as follows: Cdk1/cycB: Cdk1/cycB are obtained from ProQinase, Freiburg, Germany. Starfish oocytes are induced to enter M phase of the cell cycle with 10 μM 1-methyladenine and frozen in liquid nitrogen and stored at −80° C. […] Briefly, the supernatant from oocytes is equilibrated for 30 min at 4° C. under constant rotation with the p9^CKShs-sepharose beads. The beads are extensively washed and active cdk1/cycB kinase is eluted with purified p9^CKShs (3 mg/ml). […] The assay is carried with slight modifications in 96-well plates at ambient temperature for 20 min. […] The reaction is terminated by addition of 25 μl 0.05 M EDTA pH 7.0. An aliquot of 40 μl is spotted with a multichannel dispenser on Immobilon P membranes mounted in a Millipore Microtiter filter manifold connected to a low vacuum source. After elimination of liquid, the membrane is transferred to a sequence of 4 washing baths containing 0.5% H3PO4 and one with EtOH (shaking incubation for 10 min each), dried, mounted onto a Hewlett Packard TopCount manifold added 10 μl Microscint® and counted. […] Cells were seeded at 2.5×10^7 cells per 150 mm dish and allowed to attach to a 150 mm dish for 1 hr at RT. Media (SF900II containing 10% FBS) is aspirated and recombinant baculovirus; GST-C-Raf-1, v-Ras and v-Src are added at MOI of 3.0, 2.5 and 2.5 receptively in a total volume of 4-5 mL. Cells are incubated for 1 hr at RT and then 15 mL of medium is added. Infected cells are incubated for 48-72 hr at 27° C. Infected Sf21 cells are scraped and collected into a 50 mL tube and centrifuged for 10 min at 4° C. at 1100 g in a Sorvall centrifuge. The cell pellet is washed once with ice cold PBS and lysed with 0.6 mL lysis buffer per 2.5×10^7 cells. Complete lysis of cells is achieved after 10 min on ice with occasional pipetting. […] GST-c-Raf-1 was allowed to bind to the beads at 4° C. for 1 hr with rocking. Bound GST-c-Raf-1 with beads was transferred to a column. The column is washed once with lysis buffer and twice with ice cold Tris buffered saline. Ice cold elution buffer is added and column flow is stopped to allow the free glutathione to disrupt the interaction of GST-c-Raf-1 with glutathione sepharose beads. Fractions (1 mL) are collected into pre-chilled tubes. Each tube contains 10% glycerol (final concentration) to maintain kinase activity during freeze thaw cycles. Purified fractions of GST-c-Raf-1 kinase protein are stored at −80° C.

[3] = target: T2, human RET (Homo sapiens, UniProt P07949); assay: RET kinase inhibition, GST-wtRET or GST-RET-Men2B, 33P incorporation into poly(Glu,Tyr); assay type: biochemical; settings: Table 4
T2 construct: fused on or other part: N-terminal GST tag (pFB-GSTX3 vector)
Method: The inhibition of RET is measured as follows: The baculovirus donor vector pFB-GSTX3 is used to generate a recombinant baculovirus that expresses the amino acid region 658-1072 (Swiss prot No. Q9BTB0) of the intra-cytoplasmic kinase domain of human RET-Men2A which corresponds to the wild-type kinase domain of RET (wtRET) and RET-Men2B, which differs from the wtRET by the activating mutation in the activation loop M918T. The coding sequences for the cytoplasmic domain of wtRET and RET-Men2B are amplified by PCR from the plasmids pBABEpuro RET-Men2A and pBABEpuro RET-Men2B. The amplified DNA fragments and the pFB-GSTX3 vector are made compatible for ligation by digestion with SalI and KpnI. Ligation of these DNA fragments results in the baculovirus donor plasmid pFB-GX3-RET-Men2A and pFB-GX3-RET-Men2B, respectively. Production of virus: Transfer vectors containing the kinase domains are transfected into the DH10Bac cell line (GIBCO) and plated on selective agar plates. Colonies without insertion of the fusion sequence into the viral genome (carried by the bacteria) are blue. Single, white colonies are picked and viral DNA (bacmid) are isolated from the bacteria by standard plasmid purification procedures. Sf9 cells or Sf21 (American Type Culture Collection) cells are then transfected in 25 cm^2 flasks with the viral DNA using Cellfectin reagent. Determination of small scale protein expression in Sf9 cells: Virus-containing media is collected from the transfected cell culture and used for infection to increase its titer. Virus-containing media obtained after two rounds of infection is used for large-scale protein expression. For large-scale protein expression 100 cm^2 round tissue culture plates are seeded with 5×10^7 cells/plate and infected with 1 mL of virus-containing media (approximately 5 MOIs). After 3 days, the cells are scraped off the plate and centrifuged at 500 rpm for 5 minutes. Cell pellets from 10-20, 100 cm^2 plates, are re-suspended in 50 mL of ice-cold lysis buffer (25 mM tris-HCl, pH 7.5, 2 mM EDTA, 1% NP-40, 1 mM DTT, 1 mM P MSF). The cells are stirred on ice for 15 minutes and then centrifuged at 5,000 rpms for 20 minutes. Purification of GST-tagged proteins: The centrifuged cell lysate is loaded onto a 2 mL glutathione-sepharose column (Pharmacia) and is washed 3× with 10 mL of 25 mM tris-HCl, pH 7.5, 2 mM EDTA, 1 mM DTT, 200 mM NaCl. The GST-tagged proteins are then eluted by 10 applications (1 mL each) of 25 mM tris-HCl, pH 7.5, 10 mM reduced-glutathione, 100 mM NaCl, 1 mM DTT, 10% glycerol and stored at −70° C. Measure of enzyme activity: Tyrosine protein kinase assays with either purified GST-wtRET or GST-RET-Men2B protein are carried out in a final volume of 30 μL containing 15 ng of either GST-wtRET or GST-RET-Men2B protein, 20 mM tris-HCl, pH 7.5, 1 mM MnCl2, 10 mM MgCl2, 1 mM DTT, 3 μg/mL poly(Glu,Tyr) 4:1, 1% DMSO, 2.0 μM ATP (γ-[^33P]-ATP 0.1 μCi). The activity is assayed in the presence or absence of inhibitors, by measuring the incorporation of ^33P from [γ^33P] ATP into poly(Glu,Tyr) 4:1. The assay is carried out in 96-well plates at ambient temperature for 15 minutes under conditions described below and terminated by the addition of 20 μL of 125 mM EDTA. Subsequently, 40 μL of the reaction mixture are transferred onto Immobilon-PVDF membrane (Millipore) previously soaked for 5 minutes with methanol, rinsed with water, then soaked for 5 minutes with 0.5% H3PO4 and mounted on vacuum manifold with disconnected vacuum source. After spotting all samples, vacuum is connected and each well-rinsed with 200 μL 0.5% H3PO4. Membranes are removed and washed 4× on a shaker with 1.0% H3PO4, once with ethanol. Membranes are counted after drying at ambient temperature, mounting in Packard TopCount 96-well frame, and addition of 10 μL/well of Microscint™ (Packard). IC50 values are calculated by linear regression analysis of the percentage inhibition of each compound in duplicate, at 4 concentrations (usually 0.01, 0.1, 1 and 10 μM). […]

T1 sequence (P06213 958-1382 limits assumed): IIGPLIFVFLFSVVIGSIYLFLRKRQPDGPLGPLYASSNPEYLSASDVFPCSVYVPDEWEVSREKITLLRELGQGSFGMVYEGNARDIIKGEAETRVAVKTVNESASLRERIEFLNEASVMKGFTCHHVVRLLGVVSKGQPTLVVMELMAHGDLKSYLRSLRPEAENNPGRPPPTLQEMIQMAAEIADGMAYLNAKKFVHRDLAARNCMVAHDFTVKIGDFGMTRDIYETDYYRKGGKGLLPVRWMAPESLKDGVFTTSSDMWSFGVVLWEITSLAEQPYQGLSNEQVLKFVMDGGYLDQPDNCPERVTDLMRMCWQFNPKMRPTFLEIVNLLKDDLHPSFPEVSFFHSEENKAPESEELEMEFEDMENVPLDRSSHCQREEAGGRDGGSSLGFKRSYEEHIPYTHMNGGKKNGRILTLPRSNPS
T2 sequence (P07949 1-1072 isoform P07949-2): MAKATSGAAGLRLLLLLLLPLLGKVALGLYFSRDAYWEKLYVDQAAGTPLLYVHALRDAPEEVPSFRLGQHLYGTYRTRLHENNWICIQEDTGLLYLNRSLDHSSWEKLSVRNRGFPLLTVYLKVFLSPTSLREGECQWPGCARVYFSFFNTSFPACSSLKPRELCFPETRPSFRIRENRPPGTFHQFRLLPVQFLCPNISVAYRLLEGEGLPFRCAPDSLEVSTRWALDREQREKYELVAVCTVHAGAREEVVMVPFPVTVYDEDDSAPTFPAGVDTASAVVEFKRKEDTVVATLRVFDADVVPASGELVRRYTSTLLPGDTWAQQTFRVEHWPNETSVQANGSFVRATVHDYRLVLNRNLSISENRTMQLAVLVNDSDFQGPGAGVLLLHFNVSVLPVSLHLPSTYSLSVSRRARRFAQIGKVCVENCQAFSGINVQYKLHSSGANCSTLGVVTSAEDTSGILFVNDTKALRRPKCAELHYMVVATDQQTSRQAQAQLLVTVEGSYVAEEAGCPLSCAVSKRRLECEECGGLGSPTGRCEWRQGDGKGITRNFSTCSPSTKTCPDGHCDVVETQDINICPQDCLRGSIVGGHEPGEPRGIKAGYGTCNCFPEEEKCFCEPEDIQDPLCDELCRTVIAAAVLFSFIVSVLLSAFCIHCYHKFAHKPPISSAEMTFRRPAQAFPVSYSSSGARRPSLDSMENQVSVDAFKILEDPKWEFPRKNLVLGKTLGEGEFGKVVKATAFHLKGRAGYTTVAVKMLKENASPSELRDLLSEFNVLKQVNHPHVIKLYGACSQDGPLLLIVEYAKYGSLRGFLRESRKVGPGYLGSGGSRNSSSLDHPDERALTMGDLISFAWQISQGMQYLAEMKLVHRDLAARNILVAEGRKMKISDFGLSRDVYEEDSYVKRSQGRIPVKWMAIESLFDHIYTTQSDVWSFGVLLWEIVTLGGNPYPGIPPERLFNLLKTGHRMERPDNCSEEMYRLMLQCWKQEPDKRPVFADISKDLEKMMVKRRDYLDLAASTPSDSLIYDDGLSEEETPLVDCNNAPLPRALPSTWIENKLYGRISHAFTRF

How did the pIC50 [1] turn out when Nc1c(-c2c(Cl)cccc2Cl)cnc2c(-c3ccccc3)cnn12 [Example 16, 6-(2,6-Dichloro-phenyl)-3-phenyl-pyrazolo[1,5-a]pyrimidin-7-ylamine] was run?
Its pIC50 is greater than 5.00.

How did the pIC50 [1] turn out when Nc1cc(-c2ccccc2)nc2c(Br)cnn12 [Example 18, 3-Bromo-5-phenyl-pyrazolo[1,5-a]pyrimidin-7-ylamine] was run?
The pIC50 was greater than 5.00.

And the pIC50 [2]?
Its pIC50 is greater than 5.00.

Cc1nn2c(N)c(-c3cccc(O)c3)cnc2c1-c1ccc(N2CCN(C)CC2)cc1 [Example 61a, 3-{7-Amino-2-methyl-3-[4-(4-methyl-piperazin-1-yl)phenyl]-pyrazolo[1,5-a]pyrimidin-6-yl}-phenol] was tested. Which pIC50 [3] did it give?
Its pIC50 is greater than 5.00.
